Among the data in patent US11518760B2 (Liverpool School of Tropical Medicine, priority 2017, dated 2022) are EC50 values, retold here.

In the assay the test system is C6/36 Aedes albopictus cell line infected with Wolbachia pipientis (Wolbachia strain wAlbB). Nature of the assay: In vitro insect cell line assay (anti-Wolbachia screen, SYTO 11 high content imaging). Type of assay: cell-based. The conditions noted are these: 168 h; C6/36 Aedes albopictus cells infected with Wolbachia pipientis wAlbB, 7 days incubation, SYTO 11 imaging; read-out: In vitro anti-Wolbachia activity. In short, it runs like this: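 Wolbachia wAlbB-infected C6/36 Aedes albopictus cells were exposed to compounds at a final 5 μM for 7 days at 26 °C, with DMSO-medium wells as untreated controls. Cells were then stained with SYTO 11 for 15 min, imaged by high-content microscopy and scored by texture analysis.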
For the compound `FC1(F)CCN(c2nc(NCc3cccnc3C(F)(F)F)c3cccnc3n2)CC1` [Example 197, 2-(4,4-difluoropiperidin-1-yl)-N-((2-(trifluoromethyl)pyridin-3-yl)methyl)pyrido[2,3-d]pyrimidin-4-amine], the EC50 lay in the range of 1 to 10 nM.

Consider `CNCc1nc(NCc2ccccc2C(F)(F)F)c2cccnc2n1` [Example 145, 2-((methylamino)methyl)-N-(2-(trifluoromethyl)benzyl)pyrido[2,3-d]pyrimidin-4-amine], for which the EC50 lay in the range of 1000 to 100000 nM.

`Fc1ccc(CNc2ncnc3ccccc23)c(C(F)(F)F)c1` [Example 72, N-(4-fluoro-2-(trifluoromethyl)benzyl)quinazolin-4-amine]: the EC50 lay within 10 to 100 nM.

As for `CCN(CC)c1ncnc2ccsc12` [Example 39], the EC50 lay in the range of 1000 to 100000 nM.

For `Oc1nc(NCc2cccnc2C(F)(F)F)c2cccnc2n1` [Example 182, 4-(((2-(trifluoromethyl)pyridin-3-yl)methyl)amino)pyrido[2,3-d]pyrimldin-2-ol], the EC50 was in the range of 1000 to 100000 nM.

For `CC(Nc1ncnc2c(C#N)csc12)c1ccccc1C(F)(F)F` (centres unmarked) [Example 108, 4-((1-(2-(trifluoromethyl)phenyl)ethyl)amino)thieno[3,2-d]pyrimidine-7-carbonitrile], the EC50 is 1000 to 100000 nM.

As to `CC(C)Nc1nc(N2CCC2c2ccccc2C(F)(F)F)c2cccnc2n1` (centres unmarked) [Example 183, N-isopropyl-4-(2-(2-(trifluoromethyl)phenyl)azetidin-1-yl)pyrido[2,3-d]pyrimidin-2-amine], the EC50 lay in the range of 1 to 10 nM.

For `FC(F)(F)c1ccccc1CNc1nc(Cl)nc2ccsc12` [Example 46, 2-chloro-N-(2-(trifluoromethyl)benzyl)thieno[3,2-d]pyrimidin-4-amine], the EC50 lay within 10 to 100 nM.

As for `CN(C)c1nc(NCc2c(F)cccc2C(F)(F)F)c2cccnc2n1` [Example 169, N^4-(2-fluoro-6-(trifluoromethyl)benzyl)-N^2,N^2-dimethylpyrido[2,3-d]pyrimidine-2,4-diamine], the EC50 was 100 to 1000 nM.

As for `C[C@@H]1COCCN1c1nc(NCc2cccnc2C(F)(F)F)c2cccnc2n1` [Example 211, (R)-2-(3-methylmorpholino)-N-((2-(trifluoromethyl)pyridin-3-yl)methyl)pyrido[2,3-d]pyrimidin-4-amine], the EC50 was in the range of 10 to 100 nM.

With `FC(F)C1CN(c2nc(NCc3cccnc3C(F)(F)F)c3cccnc3n2)C1` [Example 274, 2-(3-(difluoromethyl)azetidin-1-yl)-N-((2-(trifluoromethyl)pyridin-3-yl)methyl)pyrido[2,3-d]pyrimidin-4-amine], the EC50 lay within 1 to 10 nM.

As to `COc1ccccc1CNc1nc(NCCCN2CCCC2=O)c2sccc2n1` [Example 35, 1-(3-((2-((2-methoxybenzyl)amino)thieno[3,2-d]pyrimidin-4-yl)amino)propyl)pyrrolidin-2-one], the EC50 was 100 to 1000 nM.

Consider `FC(F)(F)OC1CCN(c2nc(NCc3cccnc3C(F)(F)F)c3cccnc3n2)C1` (centres unmarked) [Example 297, 2-(3-(trifluoromethoxy)pyrrolidin-1-yl)-N-((2-(trifluoromethyl)pyridin-3-yl)methyl)pyrido[2,3-d]pyrimidin-4-amine], for which the EC50 is below 0.01 nM.

On to `CC(C)Nc1nc(NCc2c(F)cccc2C(F)(F)F)c2cccnc2n1` [Example 166, N^4-(2-fluoro-6-(trifluoromethyl)benzyl)-N^2-isopropylpyrido[2,3-d]pyrimidine-2,4-diamine], for which the EC50 fell in the range of 100 to 1000 nM.

In the case of `CCN(Cc1ccccc1C(F)(F)F)c1ncnc2ccsc12` [Example 54, N-ethyl-N-(2-(trifluoromethyl)benzyl)thieno[3,2-d]pyrimidin-4-amine], the EC50 lay in the range of 1 to 10 nM.

As for `FC(F)(F)c1ncccc1CNc1nc(N2CCCC23CCC3)nc2ncccc12` [Example 298], the EC50 is below 0.01 nM.

Take `FCC1CCCN(c2nc(NCc3cccnc3C(F)(F)F)c3cccnc3n2)C1` (centres unmarked) [Example 258, 2-(3-(fluoromethyl)piperidin-1-yl)-N-((2-(trifluoromethyl)pyridin-3-yl)methyl)pyrido[2,3-d]pyrimidin-4-amine]: the EC50 was below 0.01 nM.
